The text below walks through data of PubChem BioAssay AID1996.

SMILES strings stand for the structures. ≈ marks a conversion by molar mass, not a printed value.

For this data set the following is noted: buffer; pH 7.4; 200.0 µM.
By solubility (kinetic) is commonly meant the concentration staying in solution when a stock, usually in DMSO, is diluted into the medium. On to `Cc1ccc(Nc2nc(-c3cccnc3)cs2)cc1C`, for which the kinetic solubility was determined as 0.4 µg/mL (≈ 1.42 µM).
Then `Cc1ccc(/C=C2\SC(=S)N(C3CCS(=O)(=O)C3)C2=O)cc1` (configuration not stated), with less than 0.8 µg/mL; and `Cl.O=C(COc1ccc(Br)cc1)OCCN1CCCCC1`, with more than 56.8 µg/mL; and `Cc1ccc(-n2c(SCC(=O)N3CCCCC3)nc(O)cc2=O)cc1`, with 49.9 µg/mL (≈ 139 µM).
Turning to `CC1CC2c3cccc(C(=O)O)c3C(=O)N2c2ccc(Cl)cc21` (configuration not stated), the solubility (kinetic) is more than 49.2 µg/mL.
`CC(C)Cc1nc2ccccc2[nH]1`: the solubility (kinetic) is more than 26.1 µg/mL.
With `Cc1cc(C)c2c(=O)cc(C(=O)NCc3ccccc3)oc2c1`, the solubility (kinetic) was less than 0.7 µg/mL.
Next, `COc1ccc(NC(=O)c2cc(F)cc(F)c2)cc1S(=O)(=O)N1CCCCC1`: 5.1 µg/mL (≈ 12.4 µM); `O=C(COc1ccccc1N1C(=O)C2C3C=CC(C3)C2C1=O)c1ccccc1` (configuration not stated): more than 56 µg/mL; `Cn1c([O-])c(Cc2cccc(Cl)c2Cl)c(=O)n(C)c1=O.[NH4+]`: 43.6 µg/mL.
Next, `Cc1ccc(C(=O)NC(C)c2ccc(-n3ccnc3)cc2)o1` (configuration not stated): 40.8 µg/mL (≈ 138 µM); `CC1CCCC(NC(=O)CN2C(=O)COc3ccccc32)C1C` (configuration not stated): 6.4 µg/mL (≈ 20.2 µM).
Then `CC1CC1C(=O)Nc1nc2ccc(Cl)cc2s1` (configuration not stated), with 0.6 µg/mL (≈ 2.25 µM).
`Cl.c1ccc(Cc2ccc(OCCn3ccnc3)cc2)cc1` displayed a solubility (kinetic) of 41.3 µg/mL.
For `COc1ccc(-c2cc(=O)oc3c(C)c(OCC(=O)N(C)C)ccc23)cc1`, the solubility (kinetic) worked out at 9.6 µg/mL (≈ 26.1 µM).
Regarding `COc1ccc(NC(=O)c2cccnc2)cc1OCC(C)C`, the solubility (kinetic) stood at 27.2 µg/mL (≈ 90.6 µM).
Then `Cc1cccc(C(=O)NCC(c2ccco2)N(C)C)c1` (configuration not stated), with 36.9 µg/mL (≈ 135 µM).
Then `COc1ccc(OCC(=O)Nc2ccc3nc(C)sc3c2)cc1`, with 15.8 µg/mL (≈ 48.1 µM); and `N#Cc1cccc(NC(=O)CCNC(=O)c2ccccc2Cl)c1`, with more than 49.2 µg/mL; and `CCOc1ccccc1N1CCN(C(=O)NCc2ccc(C)cc2)CC1`, with more than 53 µg/mL.
Then `COc1ccc(OC)c(CN2CCN(C(=O)CNC(=O)c3ccccc3F)CC2)c1`, with 59.9 µg/mL (≈ 144 µM).
Turning to `O=c1c2ccccc2nc(/C=C/c2ccccc2O)n1-c1ccccc1O`, the kinetic solubility is 30.8 µg/mL (≈ 86.4 µM).
Then `Cc1cc(/C=C2\SC(=O)N(C)C2=O)c(C)n1-c1ccc(O)cc1`, with 5.6 µg/mL (≈ 17.1 µM); and `Nc1ccc(CN2CCOCC2)cc1`, with more than 28.8 µg/mL; and `COc1ccc2oc(C(=O)OCC(=O)NC3CC3)c(C)c2c1`, with 10.3 µg/mL (≈ 34 µM).
Then `CCOc1ccc(/C=N/NC(=O)Cn2ccnc2C)cc1`, with more than 42.9 µg/mL; and `N#Cc1ccc(COc2cccc3cccnc23)cc1`, with 32.4 µg/mL (≈ 124 µM); and `O=C(c1ccc(Br)cc1)N1CCN(Cc2ccccc2)CC1`, with 38.9 µg/mL (≈ 108 µM).
Then `COCC(C)n1c(C)cc(C(=O)COC(=O)c2cnc(Cl)c(Cl)c2)c1C` (configuration not stated), with 34 µg/mL (≈ 85.2 µM); and `O=C(COc1ccc(C(=O)c2ccc(F)cc2)cc1)Nc1cccc(S(=O)(=O)N2CCOCC2)c1`, with 4.2 µg/mL (≈ 8.42 µM); and `O=C(CN1C(=O)NC(c2ccccc2)(c2ccccc2)C1=O)NCc1ccc(F)cc1`, with 6.4 µg/mL (≈ 15.3 µM).
As to `COc1cccc(C(=S)N2CCOCC2)c1OS(=O)(=O)c1ccc(Cl)cc1`, the solubility (kinetic) was found to be 3.3 µg/mL (≈ 7.71 µM).
Next, `O=C1CCC(C(=O)N2CCOCC2)CN1Cc1ccc(Cl)cc1` (configuration not stated): more than 50.5 µg/mL.
Next, `NCCc1c(C(=O)O)[nH]c2ccc([N+](=O)[O-])cc12`: 35.4 µg/mL (≈ 142 µM).
Next, `O=S(=O)(c1cccc2nsnc12)N1CCCCC1`: more than 42.5 µg/mL; `NCCNc1ccc([N+](=O)[O-])c2cccnc12`: 28.7 µg/mL (≈ 124 µM).
`CN1CCN(c2nc(-c3ccc(Cl)c(Cl)c3)nc3ccccc23)CC1` returned a solubility (kinetic) of 0.4 µg/mL (≈ 1.07 µM).
Next, `O=C(COC(=O)/C=C/c1ccccc1)NC1CCCC1`: 17.2 µg/mL (≈ 62.9 µM); `Cc1ccc(NCC(=O)Nc2ccc(Br)cc2)cc1C`: 3.7 µg/mL (≈ 11.1 µM).
Molecule `CC1CC1C(=O)OCC(=O)NC(=O)c1ccc(C(C)(C)C)cc1` (configuration not stated) showed a kinetic solubility of 7.5 µg/mL (≈ 23.6 µM).
Next, `CCOC1OC(=O)C(Cl)=C1Nc1ccc(C)cc1` (configuration not stated): more than 40.2 µg/mL.
Then `Cc1ccc(NC2=NCCCS2)cc1Cl`, with 28.4 µg/mL (≈ 118 µM).
The molecule `COC(=O)c1sccc1NC(=O)Nc1cc(OC)ccc1OC` showed a kinetic solubility of 10.3 µg/mL (≈ 30.6 µM).
Next, `O=C(CC(=O)Nc1ccccc1F)Nc1ccccc1F`: more than 43.5 µg/mL; `CCN1CCN(C(=O)c2ccc(C(F)(F)F)cc2)CC1`: 40.6 µg/mL (≈ 142 µM); `CC1CN(C(=O)COC(=O)c2c(Cl)cccc2Cl)CC(C)O1` (configuration not stated): 49.5 µg/mL (≈ 143 µM).
Regarding `CCc1cc(C(=O)O)c(NC(=O)/C=C/c2ccc(OC)cc2)s1`, the kinetic solubility was more than 49.7 µg/mL.
Next, `O/C(=C\c1nc2ccccc2[nH]1)c1cccs1`: 28.3 µg/mL (≈ 117 µM).
Next, `CC(=O)c1c(C)[nH]c(C(=O)OCc2ccc([N+](=O)[O-])cc2)c1C`: 2.1 µg/mL (≈ 6.64 µM); `Cc1c(C(=O)NC2CCC(C)CC2)oc2ccccc12` (configuration not stated): 0.7 µg/mL (≈ 2.58 µM); `O=c1c2ccccc2nc2n1CCCN2`: more than 30.2 µg/mL.
Molecule `Cc1ccc([N+](=O)[O-])cc1S(=O)(=O)Nc1cccc(S(=O)(=O)Nc2ccccc2C(=O)O)c1` came in with a solubility (kinetic) of more than 73.7 µg/mL.
Then `O=C(CCN1C(=O)C2C3CCC(C3)C2C1=O)OCC(=O)c1ccc(Cl)cc1` (configuration not stated), with more than 58.5 µg/mL.
Then `O=C(Nc1ccc(N2CCN(c3ccccc3)CC2)c(F)c1)C1CC1`, with less than 0.2 µg/mL; and `Cc1cc2occ(CC(=O)NC3(C)CCS(=O)(=O)C3)c2cc1C` (configuration not stated), with more than 50.3 µg/mL; and `O=c1[nH]c(O)c(C=Nc2ccc(Cl)c(C(F)(F)F)c2)c(=O)[nH]1`, with 1.7 µg/mL (≈ 5.1 µM).
`Cc1ccc(CNC(=O)/C=C/C(=O)O)cc1` yielded a solubility (kinetic) of more than 32.9 µg/mL.
For `CN1C(=O)CC(c2ccccc2)Nc2ccccc21.Cl` (configuration not stated), the solubility (kinetic) was more than 43.3 µg/mL.
Next, `Cc1cc(-n2c(C)cc(C(=O)COc3ccc(Cl)cc3C(N)=O)c2C)no1`: 2.7 µg/mL (≈ 6.96 µM).
Then `Cc1cc(OCC(=O)N2CCOCC2)ccc1[N+](=O)[O-]`, with more than 42 µg/mL; and `COc1ccc(Cc2cnc(N)s2)cc1`, with 31.8 µg/mL (≈ 144 µM).
Next, `COc1cc(C(C)=O)ccc1OC(=O)N(C)c1ccccc1`: 44.2 µg/mL (≈ 148 µM).
Turning to `O=C(CSc1ncccn1)Nc1ccc2[nH]c(=O)[nH]c2c1`, the kinetic solubility was more than 45.2 µg/mL.
Then `CCOC(=O)CNc1nc(Cl)nc(Nc2ccc(Cl)cc2)n1`, with less than 0.1 µg/mL; and `CC(C)(CO)Nc1nc(Cl)nc(NC2CCCCC2)n1`, with 36.5 µg/mL (≈ 122 µM); and `CN(CC(=O)Nc1c(Cl)cccc1Cl)CC(=O)N(C)C1(C#N)CCCCC1`, with more than 61.7 µg/mL.
Then `Cc1ccc2c(CC(=O)NCC(C)(C)N3CCOCC3)coc2c1`, with more than 49.6 µg/mL.
As to `Cc1ccc(C(=O)NC2CCC(C)CC2)s1` (configuration not stated), the solubility (kinetic) is 10.2 µg/mL (≈ 43 µM).
Next, `COc1ccccc1NC(=O)c1ccc2c(c1)C(=O)N(Cc1ccco1)C2=O`: less than 0.4 µg/mL; `COC(=O)c1cc(C(=O)c2ccc(C(C)(C)C)cc2)c[nH]1`: 18.2 µg/mL (≈ 63.8 µM).
Next, `CC[N+](C)(C)Cc1ccccc1Br.Cc1ccc(S(=O)(=O)[O-])cc1`: more than 62.2 µg/mL; `Cc1ccc(S(=O)(=O)N2CCC[C@H]2C(=O)OCc2cc(=O)oc3cc(C)ccc23)cc1`: 7.3 µg/mL (≈ 16.5 µM).
Next, `N#C/C(=C\Nc1ccc(F)c(Cl)c1)C(=O)C1CC1`: 1.7 µg/mL (≈ 6.42 µM).
For the molecule `O=C(Nc1nc2ccccc2s1)c1c(F)cccc1Cl`, the kinetic solubility came to 0.6 µg/mL (≈ 1.96 µM).
Then `N#Cc1c(-c2cccc([N+](=O)[O-])c2)nc2n(c1=O)CCS2`, with more than 45 µg/mL; and `Nc1cc(S(=O)(=O)c2ccc(O)c(N)c2)ccc1O`, with more than 42 µg/mL.
Next, `CCOCCCNC(=O)/C(C#N)=C/c1cc(C)c(O)c(C)c1`: 7 µg/mL (≈ 23.2 µM); `CC(C)(C)c1nc2ccc([N+](=O)[O-])cc2[nH]1`: more than 32.9 µg/mL; `C=CCn1c(Oc2cccc(C)c2)nc2c1c(=O)n(C)c(=O)n2C`: more than 49 µg/mL.
Then `Cc1ccc(C)c(OCCNc2ccc([N+](=O)[O-])cn2)c1`, with 0.4 µg/mL (≈ 1.39 µM); and `CC(NCC(=O)NCC(=O)Nc1ccc(F)cc1)c1cccc(C(F)(F)F)c1` (configuration not stated), with more than 59.6 µg/mL; and `O=C(O)CN1CCN(Cc2cccc(Cl)c2)C1=O`, with more than 40.3 µg/mL.
Molecule `CC(C)(C)NC(=O)c1ccc(COc2ccc(Cl)cc2Cl)o1` showed a solubility (kinetic) of 5 µg/mL (≈ 14.6 µM).
Next, `COc1ccccc1NC(=O)Cc1ccsc1`: more than 37.1 µg/mL; `O=[N+]([O-])c1ccc(-c2ccc(/C=N/O)o2)cc1`: 8 µg/mL (≈ 34.5 µM); `Nc1c(Br)c(=O)[nH]c(=O)n1-c1ccccc1`: more than 42.3 µg/mL.
Next, `Cc1csc(SCC(=O)Nc2nccs2)n1`: more than 40.7 µg/mL; `CC(=O)N1CCN(CC(O)Cn2c3ccccc3c3ccccc32)CC1` (configuration not stated): more than 52.7 µg/mL; `Cc1ccc(C)c(NC(=S)NCCc2cnc[nH]2)c1`: 36.8 µg/mL (≈ 134 µM).
Next, `CCOc1c(Nc2cccc(Cl)c2)c(=O)c1=O`: more than 37.8 µg/mL; `Nc1nc2ccc(NC(=O)c3ccco3)cc2s1`: more than 38.9 µg/mL.
As for `Cc1ccc(C(=O)N2CCC(C(=O)NC3CCCC3)CC2)cc1`, the kinetic solubility was 44 µg/mL (≈ 140 µM).
Then `Cc1[nH]c2ccc(OCc3ccccc3)cc2c1CCN.Cl`, with more than 47.5 µg/mL; and `COc1ccc(S(=O)(=O)NCc2cccnc2)cc1C`, with more than 43.9 µg/mL.
Next, `N#Cc1c(F)cccc1NCCCn1ccnc1`: 30.7 µg/mL (≈ 126 µM); `NC(=O)COC(=O)c1cccnc1Nc1ccccc1F`: 36.1 µg/mL (≈ 125 µM); `CC(=O)c1cn(Cc2ccc(F)cc2)c2ccccc12`: 1.9 µg/mL (≈ 7.11 µM).
Then `O=C(COC(=O)CNC(=O)c1cc(Cl)cc([N+](=O)[O-])c1)NC(=O)NCc1ccco1`, with 61.7 µg/mL (≈ 141 µM); and `NS(=O)(=O)c1ccc(CCNC(=O)c2ccc3c(=O)n4c(nc3c2)CCCCC4)cc1`, with 8.2 µg/mL (≈ 18.6 µM); and `O=C(c1ccsc1)N1CCCC(N2CCOCC2)C1` (configuration not stated), with more than 42.1 µg/mL.
Consider `COCCCN1C(=O)CC(C(=O)OC)=C1C`, for which the kinetic solubility is more than 34.1 µg/mL.
Then `CC1CC(C)CN(C(C)C(=O)Nc2cc(S(=O)(=O)N3CCCCC3)ccc2Cl)C1` (configuration not stated), with less than 0.3 µg/mL.
